Test results from PMC5666381, “Rapid Assessment of the Toxicity of Fungal Compounds Using Luminescent Vibrio qinghaiensis sp. Q67” (Toxins, 2017).
≈ marks a conversion by molar mass, not a printed value.

How the values were obtained:
kidney cells = conditions: cited from earlier work; for IC50: read-out: IC50, cytotoxic effects, ref Bouslimi et al. (2008) [29]; for IC50, cytotoxic effects: value in brackets after the µM value, ref Bouslimi et al. (2008) [29]
[1] = tested on: Vibrio qinghaiensis sp. Q67; assay: microbe, parasite or virus in culture; type: cell-based; conditions: for IC50: Vibrio qinghaiensis, 0.25 h, read-out: IC50, luminescence inhibition of standard mycotoxins; for IC50 / IC50, luminescence inhibition of standard mycotoxins: V. qinghaiensis sp. Q67, 15 min exposure, 22 °C, 0.8% NaCl
[2] = tested on: Photobacterium phosphoreum; conditions: Photobacterium phosphoreum bioluminescence; cited from earlier work
mice = conditions: ref Kouadio et al. (2013) [14]; cited from earlier work
[3] = tested on: human promyelocytic leukemia cell line HL60; conditions: HL60 cells; ref Nagashima and Nakagawa (2014) [13]; cited from earlier work
V. fischeri [4] = conditions: ref Menz et al. (2013) [25]; cited from earlier work
Aliivibrio fischeri = conditions: cited from earlier work
V. fischeri [5] = conditions: cited from earlier work

Q: Which IC50 (kidney cells) does the source give for `CC1=C2C(=CO[C@H](C)[C@H]2C)C(O)=C(C(=O)O)C1=O` [Citrinin] here?
A: Its IC50 is 220 µM.

Q: What about the “IC50, cytotoxic effects” value (kidney cells) of the same compound?
A: The value was 55.06 µg/mL (≈ 220 µM).

Q: And the IC50 [1]?
A: Its IC50 is 12.23 ± 0.1 µg/mL (≈ 48.9 µM).

Q: And the “EC50 for toxic effects” value [2]?
A: Its value is 20.05 µg/mL.

Q: For `CC1=C[C@H]2O[C@@H]3[C@H](O)C[C@](C)([C@@]2(CO)[C@H](O)C1=O)[C@]31CO1` [Deoxynivalenol], which “no-observed-adverse-effect level (NOAEL)” value (mice) is on record?
A: The value was “lower than 45 µg kg^−1 day^−1”.

Q: And the “IC50, cell proliferation” value [3]?
A: Its value is 0.36 µg/mL (≈ 1.21 µM).

Q: And the “IC50, luminescence inhibition of standard mycotoxins” value [1]?
A: The value was 30.74 ± 0.33 µg/mL.

Q: With `CCCC[C@@H](C)[C@@H](OC(=O)C[C@@H](CC(=O)O)C(=O)O)[C@H](C[C@@H](C)C[C@H](O)CCCC[C@@H](O)C[C@H](O)[C@H](C)N)OC(=O)C[C@@H](CC(=O)O)C(=O)O` [Fumonisin B1] as the compound, how does the “IC50, luminescence inhibition of standard mycotoxins” value [1] read?
A: The value was 14.88 ± 0.14 µg/mL.

Q: Which IC50 (kidney cells) does the source give for `C[C@@H]1Cc2c(Cl)cc(C(=O)N[C@@H](Cc3ccccc3)C(=O)O)c(O)c2C(=O)O1` [Ochratoxin A] here?
A: Its IC50 is 50 µM.

Q: And the “IC50, cytotoxic effects” value (kidney cells)?
A: The value was 20.15 µg/mL (≈ 49.9 µM).

Q: What about the IC50 [1] of the same compound?
A: Its IC50 is 11.02 ± 0.1 µg/mL (≈ 27.3 µM).

Q: And the “EC50 for toxic effects” value [2]?
A: Its value is 16.88 µg/mL.

Q: With `O=C1C=C2C(=CCOC2O)O1` (stereo not shown) [Patulin] as the compound, how does the IC50 [1] read?
A: The IC50 was 13.3 ± 0.14 µg/mL (≈ 86.4 µM).

Q: What does the source list for `C[C@H]1CCCC(=O)CCC/C=C/c2cc(O)cc(O)c2C(=O)O1` [Zearalenone]?
A: IC50 [1]: 9.71 ± 0.17 µg/mL (≈ 30.5 µM); EC50 for toxic effects [2]: 13.51 µg/mL

Q: With `O.O.O.O.O.O.O.O=S(=O)([O-])[O-].[Zn+2]` [ZnSO4, Zinc sulfate heptahydrate] as the compound, how does the “IC50, luminescence inhibition by ZnSO4” value ([1]; V. qinghaiensis Q67, reference substrate, 15 min) read?
A: The value was 7640 ± 420 µg/mL.

Q: And the “IC50, inhibition of relative luminescence” value (V. fischeri [4])?
A: Its value is 26000 ± 3300 µg/mL.

Q: Which EC50 (Aliivibrio fischeri) does the source give for aflatoxin B1 here?
A: Its EC50 is 23.3 µg/mL.

Q: And the EC50 (V. fischeri [5])?
A: Its EC50 is 14.4 µg/mL.
